Source: USRE49850E1, “N-(pyridin-2-yl)-4-(thiazol-5-yl)pyrimidin-2-amine derivatives as therapeutic compounds” (AUCENTRA THERAPEUTICS PTY LTD, priority 2015, dated 2024)

Legend:
CDK4D1 = target: T1, CDK4D1 (Homo sapiens, UniProt P11802); assay: Kinase assay CDK4/D1 (radiometric or ADP Glo); format: biochemical; conditions: apparent Ki calculated from Km (ATP) and IC50; read-out: CDK inhibition Ki CDK4D1
T1 construct: purchased Eurofins Pharma Discovery or Reaction Biology Corporation (service)
Description: (§1) Eurofins Pharma Discovery or Reaction Biology Corporation Kinase Profiler services were used to measure inhibition of CDKs and other kinases by radiometric assay. Inhibition of CDK4/D1, CDK6/D3 and CDK9/T1 were also determined in-house using ADP Glo Kinase assays (Promega Corporation, Madison, USA). Briefly, the kinase reaction for CDK4/D1 and CDK6/D3 was performed with kinase reaction buffer ([…] Tris base pH 7.5, 20 mM MgCl2, 0.4 mM DTT), 0.1 mg/ml BSA and RB-CTF substrate (retinoblastoma protein1 C-terminal fraction). For CDK9/CyclinT1, the kinase reaction was performed with standard assay buffer and Kinase Dilution Buffer and RBER-IRStide substrate. Serial dilutions of 1:3 were prepared for test compounds for 10 concentrations (from 10 μM to 0.5 nM). The kinase reactions were started by addition of ATP, incubated for 40 min at 37° C. and then stopped by adding 10 μL of ADP Glo reagent. After incubation at room temperature in the dark for 40 min, 20 μL of kinase detection reagent was added per well and incubated for 40 min. Luminescence was measured using an EnVision Multilabel plate reader (PerkinElmer, Buckinghamshire, UK). Positive and negative controls were perfonned in the presence and absence of CDK kinases, respectively. Half-maximal inhibition (IC50) values were calculated using a 4-parameter logistic non-linear regression model with Graphpad prism (Version 6.0). Apparent inhibition constants (Ki) values were calculated from Km (ATP) and IC50 values for the respective kinases.

CDK1B = CDK1B (Homo sapiens, UniProt P06493); assay: Kinase assay CDK1B (radiometric profiling service); format: biochemical; conditions: for Ki: apparent Ki calculated from Km (ATP) and IC50, read-out: CDK inhibition Ki CDK1B; for remaining activity at 10 µM: compound at 10 μM, read-out: % remaining enzymatic activity at 10 μM CDK1B
Chain of CDK1B (P06493 whole entry): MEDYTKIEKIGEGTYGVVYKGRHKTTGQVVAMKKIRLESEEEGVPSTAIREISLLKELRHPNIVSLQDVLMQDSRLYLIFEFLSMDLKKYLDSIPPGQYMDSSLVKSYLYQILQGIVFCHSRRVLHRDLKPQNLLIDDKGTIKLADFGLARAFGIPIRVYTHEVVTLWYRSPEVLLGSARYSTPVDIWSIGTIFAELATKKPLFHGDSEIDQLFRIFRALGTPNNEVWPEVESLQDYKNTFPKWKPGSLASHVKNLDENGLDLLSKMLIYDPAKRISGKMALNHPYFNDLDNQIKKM
Chain of CDK1B (P14635 whole entry partner): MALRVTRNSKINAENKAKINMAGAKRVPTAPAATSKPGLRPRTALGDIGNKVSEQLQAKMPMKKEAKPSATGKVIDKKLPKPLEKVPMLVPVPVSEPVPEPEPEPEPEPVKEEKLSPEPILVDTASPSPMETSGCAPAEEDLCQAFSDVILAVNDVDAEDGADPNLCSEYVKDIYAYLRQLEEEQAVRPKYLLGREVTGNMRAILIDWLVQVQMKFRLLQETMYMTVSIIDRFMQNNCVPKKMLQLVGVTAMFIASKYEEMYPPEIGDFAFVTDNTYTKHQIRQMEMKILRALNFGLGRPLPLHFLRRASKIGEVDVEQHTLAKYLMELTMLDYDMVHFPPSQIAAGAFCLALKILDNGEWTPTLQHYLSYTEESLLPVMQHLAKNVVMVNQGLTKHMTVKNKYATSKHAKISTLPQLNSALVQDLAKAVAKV
Description: as §1

CDK9T1 = target: T2, CDK9T1 (Homo sapiens, UniProt P50750); assay: Kinase assay CDK9/T1 (radiometric or ADP Glo); format: biochemical; conditions: for Ki: apparent Ki calculated from Km (ATP) and IC50, read-out: CDK inhibition Ki CDK9T1; for remaining activity at 10 µM: compound at 10 μM, read-out: % remaining enzymatic activity at 10 μM CDK9T1
T2 construct: purchased Eurofins Pharma Discovery or Reaction Biology Corporation (service)
T2 sequence (P50750 whole entry): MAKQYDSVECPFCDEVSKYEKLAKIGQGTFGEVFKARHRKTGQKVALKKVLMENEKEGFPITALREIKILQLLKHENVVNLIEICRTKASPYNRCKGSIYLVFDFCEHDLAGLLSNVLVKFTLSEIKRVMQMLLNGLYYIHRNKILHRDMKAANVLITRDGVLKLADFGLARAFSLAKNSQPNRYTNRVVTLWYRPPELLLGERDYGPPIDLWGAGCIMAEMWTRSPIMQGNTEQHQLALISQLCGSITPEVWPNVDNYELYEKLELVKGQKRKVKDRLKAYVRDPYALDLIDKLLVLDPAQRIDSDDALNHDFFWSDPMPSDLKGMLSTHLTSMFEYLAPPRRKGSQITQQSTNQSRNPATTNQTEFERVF
T2 sequence (O60563 whole entry partner): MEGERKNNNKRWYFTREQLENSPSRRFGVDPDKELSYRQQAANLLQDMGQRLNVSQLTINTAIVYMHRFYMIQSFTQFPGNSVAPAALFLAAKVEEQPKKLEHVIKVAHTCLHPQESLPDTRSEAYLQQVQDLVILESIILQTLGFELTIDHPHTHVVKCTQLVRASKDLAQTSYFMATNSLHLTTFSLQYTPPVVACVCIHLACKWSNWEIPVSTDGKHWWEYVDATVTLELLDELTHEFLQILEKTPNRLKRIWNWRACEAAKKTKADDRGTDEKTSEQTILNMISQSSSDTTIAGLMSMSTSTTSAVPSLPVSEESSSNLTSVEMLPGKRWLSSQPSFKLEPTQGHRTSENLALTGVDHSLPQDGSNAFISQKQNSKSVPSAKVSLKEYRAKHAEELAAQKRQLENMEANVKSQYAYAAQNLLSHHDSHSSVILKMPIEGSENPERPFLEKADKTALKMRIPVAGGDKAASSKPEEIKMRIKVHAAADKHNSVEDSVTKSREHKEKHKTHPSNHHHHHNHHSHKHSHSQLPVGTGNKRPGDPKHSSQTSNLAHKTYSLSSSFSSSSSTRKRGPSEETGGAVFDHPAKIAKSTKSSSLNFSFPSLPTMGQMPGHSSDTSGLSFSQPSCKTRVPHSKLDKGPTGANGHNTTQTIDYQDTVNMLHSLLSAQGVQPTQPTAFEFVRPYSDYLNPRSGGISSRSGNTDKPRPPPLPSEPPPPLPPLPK
Description: as §1

CDK6D3 = target: T3, CDK6D3 (Homo sapiens, UniProt Q00534); assay: Kinase assay CDK6/D3 (radiometric or ADP Glo); format: biochemical; conditions: for Ki: apparent Ki calculated from Km (ATP) and IC50, read-out: CDK inhibition Ki CDK6D3
T3 construct: purchased Eurofins Pharma Discovery or Reaction Biology Corporation (service)
T3 sequence (Q00534 whole entry): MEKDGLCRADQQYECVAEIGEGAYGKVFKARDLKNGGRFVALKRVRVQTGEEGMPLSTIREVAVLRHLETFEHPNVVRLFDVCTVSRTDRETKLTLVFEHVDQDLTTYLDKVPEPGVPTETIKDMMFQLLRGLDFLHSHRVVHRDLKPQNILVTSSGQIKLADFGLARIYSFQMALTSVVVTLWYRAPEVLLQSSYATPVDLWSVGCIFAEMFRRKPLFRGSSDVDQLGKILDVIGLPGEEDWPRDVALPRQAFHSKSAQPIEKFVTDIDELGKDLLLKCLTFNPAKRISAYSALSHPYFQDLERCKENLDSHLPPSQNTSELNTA
T3 sequence (P30281 whole entry partner): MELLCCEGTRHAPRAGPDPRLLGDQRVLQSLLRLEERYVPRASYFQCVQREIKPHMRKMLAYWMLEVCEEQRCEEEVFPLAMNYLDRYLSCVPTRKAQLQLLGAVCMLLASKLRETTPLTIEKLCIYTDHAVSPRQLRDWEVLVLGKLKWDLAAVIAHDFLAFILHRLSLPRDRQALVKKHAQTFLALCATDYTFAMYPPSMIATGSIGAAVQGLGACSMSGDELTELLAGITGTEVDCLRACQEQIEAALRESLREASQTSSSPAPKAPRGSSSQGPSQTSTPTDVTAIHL
Description: as §1

MV4-11 = assay: Cell viability assay (resazurin, leukemia cell line) MV4-11; format: cell-based, human; conditions: Homo sapiens, MV4-11, 72 h; read-out: Anti-proliferative activity GI50 MV4-11
Excerpt: (§2) Compounds from Example 1 were subjected to a standard MTT (3-(4,5-dimethylthiazol-2-yl)-2,5-diphenyltetrazolium bromide) and resazurin assays on solid tumour cell lines and leukemia cell lines, respectively, as previously reported (Wang S et al., J Med Chem 47:1662-1675, 2004 and Diab S. et al. CheMedChem 9:962-972, 2014).

CDK 2A = CDK 2A (Homo sapiens, UniProt P24941); assay: Kinase assay CDK2A (radiometric profiling service); format: biochemical; conditions: for Ki: apparent Ki calculated from Km (ATP) and IC50, read-out: CDK inhibition Ki CDK 2A; for remaining activity at 10 µM: compound at 10 μM, read-out: % remaining enzymatic activity at 10 μM CDK 2A
Description: as §1

CDK7H = CDK7H (Homo sapiens, UniProt P50613); assay: Kinase assay CDK7H (radiometric profiling service); format: biochemical; conditions: for Ki: apparent Ki calculated from Km (ATP) and IC50, read-out: CDK inhibition Ki CDK7H; for remaining activity at 10 µM: compound at 10 μM, read-out: % remaining enzymatic activity at 10 μM CDK7H
Chain of CDK7H (P50613 whole entry): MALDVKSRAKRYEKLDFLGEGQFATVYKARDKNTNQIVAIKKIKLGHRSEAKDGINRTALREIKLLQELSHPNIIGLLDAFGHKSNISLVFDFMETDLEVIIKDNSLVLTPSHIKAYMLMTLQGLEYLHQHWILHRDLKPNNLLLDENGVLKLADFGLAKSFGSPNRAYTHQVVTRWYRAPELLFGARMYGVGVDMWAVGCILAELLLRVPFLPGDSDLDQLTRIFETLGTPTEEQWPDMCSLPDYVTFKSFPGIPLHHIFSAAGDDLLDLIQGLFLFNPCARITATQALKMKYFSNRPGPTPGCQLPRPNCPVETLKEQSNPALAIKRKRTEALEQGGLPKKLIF
Chain of CDK7H (P51946 whole entry partner): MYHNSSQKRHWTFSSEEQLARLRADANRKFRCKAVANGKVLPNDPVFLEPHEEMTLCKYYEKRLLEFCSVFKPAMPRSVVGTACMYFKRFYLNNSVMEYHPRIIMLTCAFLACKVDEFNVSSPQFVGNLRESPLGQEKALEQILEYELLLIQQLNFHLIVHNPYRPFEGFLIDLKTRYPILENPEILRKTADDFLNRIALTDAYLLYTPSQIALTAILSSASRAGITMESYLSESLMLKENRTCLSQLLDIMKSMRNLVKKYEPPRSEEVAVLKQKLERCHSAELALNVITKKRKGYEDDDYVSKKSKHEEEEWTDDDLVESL
Chain of CDK7H (P51948 whole entry partner): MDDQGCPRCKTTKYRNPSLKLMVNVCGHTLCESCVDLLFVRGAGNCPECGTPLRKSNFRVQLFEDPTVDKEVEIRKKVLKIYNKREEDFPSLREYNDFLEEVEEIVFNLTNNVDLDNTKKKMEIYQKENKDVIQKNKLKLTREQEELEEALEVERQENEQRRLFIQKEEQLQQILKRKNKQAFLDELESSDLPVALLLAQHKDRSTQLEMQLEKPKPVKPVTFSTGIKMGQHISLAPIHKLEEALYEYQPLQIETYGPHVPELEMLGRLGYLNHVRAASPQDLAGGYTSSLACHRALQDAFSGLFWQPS
Description: as §1

MDA-MB-453 = assay: Cell viability assay (MTT, solid tumour cell line) MDA-MB-453; format: cell-based, human; conditions: Homo sapiens, MDA-MB-453, 72 h; read-out: Anti-proliferative activity GI50 MDA-MB-453
Excerpt: as §2

T1 sequence (P11802 whole entry): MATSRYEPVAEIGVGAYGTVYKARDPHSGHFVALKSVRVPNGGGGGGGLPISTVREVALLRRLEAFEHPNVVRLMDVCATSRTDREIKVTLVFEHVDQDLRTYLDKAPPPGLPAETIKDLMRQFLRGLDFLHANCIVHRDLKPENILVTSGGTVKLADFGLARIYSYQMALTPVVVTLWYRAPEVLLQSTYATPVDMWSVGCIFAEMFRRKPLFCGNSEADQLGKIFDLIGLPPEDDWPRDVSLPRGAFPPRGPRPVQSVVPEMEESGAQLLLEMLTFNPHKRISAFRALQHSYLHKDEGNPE
T1 sequence (P24385 whole entry partner): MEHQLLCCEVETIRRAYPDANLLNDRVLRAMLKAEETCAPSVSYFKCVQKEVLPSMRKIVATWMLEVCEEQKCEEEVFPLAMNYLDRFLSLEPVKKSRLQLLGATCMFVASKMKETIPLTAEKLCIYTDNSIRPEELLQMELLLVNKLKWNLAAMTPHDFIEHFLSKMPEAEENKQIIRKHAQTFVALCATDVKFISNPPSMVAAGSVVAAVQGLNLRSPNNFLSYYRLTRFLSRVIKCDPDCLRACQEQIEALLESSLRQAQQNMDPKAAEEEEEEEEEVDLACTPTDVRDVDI

## CNc1nc(C)c(-c2nc(Nc3ccc(N4CCOCC4)cn3)ncc2C#N)s1 [Compound 37, 4-(4-methyl-2-(methylamino)thiazol-5-yl)-2-((5-morpholinopyridin-2-yl)amino)pyrimidine-5-carbonitrile]
CDK4D1
  Ki: 4 nM
CDK1B
  Ki: > 5000 nM
CDK9T1
  Ki: > 5000 nM
CDK6D3
  Ki: 64 nM
MV4-11
  GI50: 465 ± 129 nM
CDK 2A
  Ki: 201 nM
CDK7H
  Ki: > 5000 nM

## Cc1[nH]c(=O)sc1-c1ccnc(Nc2ccc(N3CCNCC3)cn2)n1 [Compound 97, 4-methyl-5-(2-((5-(piperazin-1-yl)pyridin-2-yl)amino)pyrimidin-4-yl)thiazol-2(3H)-one]
CDK1B
  remaining activity at 10 µM: 58%
CDK9T1
  remaining activity at 10 µM: 3%
CDK6D3; compound at 10 μM, read-out: % remaining enzymatic activity at 10 μM CDK6D3
  remaining activity at 10 µM: 12%
MDA-MB-453
  GI50: > 10000 nM
MV4-11
  GI50: 1510 ± 802 nM
CDK 2A
  remaining activity at 10 µM: 54%
CDK7H
  remaining activity at 10 µM: 24%

## Cc1nc(N(C)C)sc1-c1nc(Nc2ccc(N3CCOCC3)cn2)ncc1F [Compound 50, 5-(5-fluoro-2-((5-morpholinopyridin-2-yl)amino)pyrimidin-4-yl)-N,N,4-trimethylthiazol-2-amine]
CDK4D1
  Ki: 44 nM
CDK1B
  Ki: > 5000 nM
CDK9T1
  Ki: > 5000 nM
MDA-MB-453
  GI50: 5360 ± 501 nM
MV4-11
  GI50: 4680 ± 298 nM
CDK 2A
  Ki: 69 nM
CDK7H
  Ki: > 5000 nM

## CNc1nc(C)c(-c2nc(Nc3ccc(N4CCN(C)CC4)cn3)ncc2C#N)s1 [Compound 30, 4-(4-methyl-2-(methylamino)thiazol-5-yl)-2-((5-(4-methylpiperazin-1-yl)pyridin-2-yl)amino)pyrimidine-5-carbonitrile]
CDK4D1
  Ki: 4 nM
CDK1B
  remaining activity at 10 µM: 66%
CDK9T1
  remaining activity at 10 µM: 9%
CDK6D3
  Ki: 32 nM
MV4-11
  GI50: 56 ± 4 nM
CDK 2A
  remaining activity at 10 µM: 36%
CDK7H
  remaining activity at 10 µM: 43%

## CNc1nc(C)c(-c2nc(Nc3ccc(N4CCNCC4)cn3)ncc2C#N)s1 [Compound 27, 4-(4-methyl-2-(methylamino)thiazol-5-yl)-2-((5-(piperazin-1-yl)pyridin-2-yl)amino)pyrimidine-5-carbonitrile]
CDK4D1
  Ki: 1 nM
CDK1B
  remaining activity at 10 µM: 56%
CDK9T1
  remaining activity at 10 µM: 11%
CDK6D3
  Ki: 40 nM
MV4-11
  GI50: 14 ± 6 nM
CDK 2A
  remaining activity at 10 µM: 34%
CDK7H
  remaining activity at 10 µM: 39%

## Cc1nc(N(C2CCCC2)C2CCCC2)sc1-c1ccnc(Nc2ccc(N3CCNCC3)cn2)n1 [Compound 88, N,N-dicyclopentyl-4-methyl-5-(2-((5-(piperazin-1-yl)pyridin-2-yl)amino)pyrimidin-4-yl)thiazol-2-amine]
CDK1B
  Ki: > 15000 nM
CDK9T1
  Ki: > 5000 nM
MDA-MB-453
  GI50: 373 ± 117 nM
MV4-11
  GI50: 714 ± 179 nM
CDK 2A
  Ki: > 5000 nM
CDK7H
  Ki: > 5000 nM

## CCc1nc(C)c(-c2ccnc(Nc3ccc(N4CCN(C(C)=O)CC4)cn3)n2)s1 [Compound 10, 1-(4-(6-((4-(2-ethyl-4-methylthiazol-5-yl)pyrimidin-2-yl)amino)pyridin-3-yl)piperazin-1-yl)ethan-1-one]
CDK4D1
  Ki: 290 nM
CDK1B
  Ki: > 5000 nM
CDK9T1
  Ki: > 5000 nM
MDA-MB-453
  GI50: > 10000 nM
MV4-11
  GI50: 5370 ± 1680 nM
CDK 2A
  Ki: > 5000 nM
CDK7H
  Ki: > 5000 nM

## CNc1nc(C)c(-c2nc(Nc3ccc(N4CCN(Cc5ccccc5)CC4)cn3)ncc2C#N)s1 [Compound 40, 2-((5-(4-benzylpiperazin-1-yl)pyridin-2-yl)amino)-4-(4-methyl-2-(methylamino)thiazol-5-yl)pyrimidine-5-carbonitrile]
CDK4D1
  Ki: 16 nM
CDK1B
  Ki: > 5000 nM
CDK9T1
  Ki: 999 nM
CDK6D3
  Ki: 36 nM
MV4-11
  GI50: 84 ± 8 nM
CDK 2A
  Ki: > 5000 nM
CDK7H
  Ki: > 5000 nM

## CCc1nc(C)c(-c2ccnc(Nc3ccc(N4CCOCC4)cn3)n2)s1 [Compound 12, 4-(2-Ethyl-4-methylthiazol-5-yl)-N-(5-morpholinopyridin-2-yl)pyrimidin-2-amine]
CDK4D1
  Ki: 180 nM
CDK1B
  Ki: > 5000 nM
CDK9T1
  Ki: > 5000 nM
MDA-MB-453
  GI50: > 10000 nM
MV4-11
  GI50: 5290 ± 811 nM
CDK 2A
  Ki: 2340 nM
CDK7H
  Ki: > 5000 nM
